Changes are numbered by the printed parent chain.
Assays:
[1] = test system: AR with T878A and W742C mutations; parameters: method as in PMID 12517791; conditions: cited from earlier work
[2] = target: T1, AR (LNCaP cells, which carry the T878A AR mutation) (Homo sapiens, UniProt P10275, T878A); test: eGFP cellular AR transcription assay in LNCaP cells (LN-ARR2PB-eGFP); format: cell-based; conditions: for Anti-AR activity in eGFP assay: eGFP-expressing LNCaP cells; for Partial agonistic effect in eGFP assay: with R1881, high concentrations
T1 construct: LNCaP cells, which carry the T878A AR mutation; endogenous in cells; host or cells: LNCaP (LN-ARR2PB-eGFP)
T1 sequence (P10275 1-920 T878A): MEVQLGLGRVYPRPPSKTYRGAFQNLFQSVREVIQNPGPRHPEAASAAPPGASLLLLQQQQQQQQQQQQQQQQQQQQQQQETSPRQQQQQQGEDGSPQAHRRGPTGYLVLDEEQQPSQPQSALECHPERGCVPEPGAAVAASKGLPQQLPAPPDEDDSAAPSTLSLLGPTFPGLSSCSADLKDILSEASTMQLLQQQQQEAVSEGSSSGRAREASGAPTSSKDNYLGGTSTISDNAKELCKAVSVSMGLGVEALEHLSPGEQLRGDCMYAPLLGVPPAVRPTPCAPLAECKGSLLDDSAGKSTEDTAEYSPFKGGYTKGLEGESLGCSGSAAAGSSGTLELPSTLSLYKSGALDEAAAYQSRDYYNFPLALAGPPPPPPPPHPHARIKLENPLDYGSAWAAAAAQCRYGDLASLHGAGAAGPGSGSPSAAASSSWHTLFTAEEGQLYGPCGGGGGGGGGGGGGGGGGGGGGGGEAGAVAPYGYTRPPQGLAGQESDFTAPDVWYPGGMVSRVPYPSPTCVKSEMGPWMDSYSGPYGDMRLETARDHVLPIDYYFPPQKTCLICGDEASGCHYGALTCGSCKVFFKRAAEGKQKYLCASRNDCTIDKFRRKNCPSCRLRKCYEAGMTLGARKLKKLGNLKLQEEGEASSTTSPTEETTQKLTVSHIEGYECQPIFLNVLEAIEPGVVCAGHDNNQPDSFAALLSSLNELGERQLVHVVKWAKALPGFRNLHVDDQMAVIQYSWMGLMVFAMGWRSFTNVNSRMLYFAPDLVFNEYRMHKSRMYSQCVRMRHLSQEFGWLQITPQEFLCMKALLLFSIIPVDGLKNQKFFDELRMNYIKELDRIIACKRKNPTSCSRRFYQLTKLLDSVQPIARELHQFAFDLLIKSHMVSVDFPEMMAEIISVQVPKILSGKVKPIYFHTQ
Description: AR transcriptional activity was assayed as previously described. Briefly, LNCaP human prostate cancer cells (LN-ARR2PB-eGFP), stably transfected with eGFP reporter driven by an androgen responsive probasin-derived promoter (ARR2PB), were grown in phenol red free RPMI 1640 media supplemented with 5% charcoal stripped serum (CSS). After 5 days, the cells were plated into a 96-well plate (35,000 cells/well) with 0.1 nM of the synthetic androgen R1881 and increasing concentrations (0−100 μM) of test compounds. Fluorescence (excitation 485 nm, emission 535 nm) was measured after 3 days of incubation with the compounds.

Androgen Receptor ABS = target: T2, Androgen Receptor ABS (Rattus norvegicus, UniProt P15207); test: Androgen (DHT) displacement, Polar Screen Androgen Receptor Competitor Green Assay Kit; format: binding; conditions: for Androgen displacement: at 50 µM; for Androgen Displacement (Yes/No): fluorescence polarization kit
T2 construct: purchased
T2 sequence (P15207 647-902 limits assumed): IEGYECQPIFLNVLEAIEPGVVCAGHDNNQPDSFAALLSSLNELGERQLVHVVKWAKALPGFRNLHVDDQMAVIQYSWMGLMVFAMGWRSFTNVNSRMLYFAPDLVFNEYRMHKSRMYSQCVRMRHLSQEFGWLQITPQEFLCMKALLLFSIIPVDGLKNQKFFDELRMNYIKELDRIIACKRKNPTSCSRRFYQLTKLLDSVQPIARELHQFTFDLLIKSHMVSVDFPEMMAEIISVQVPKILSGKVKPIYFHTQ
Description: Androgen displacement was assessed with the Polar Screen Androgen Receptor Competitor Green Assay Kit as per the instructions of the manufacturer.

wild type AR LBD = target: T3, wild type AR LBD (Homo sapiens, UniProt P10275); test: Biolayer interferometry (BLI), wild type LBD; format: binding
T3 construct: made in house; host or cells: E. coli BL21-DE3 co-transformed with pBirACm
T3 sequence (P10275 669-900 limits assumed): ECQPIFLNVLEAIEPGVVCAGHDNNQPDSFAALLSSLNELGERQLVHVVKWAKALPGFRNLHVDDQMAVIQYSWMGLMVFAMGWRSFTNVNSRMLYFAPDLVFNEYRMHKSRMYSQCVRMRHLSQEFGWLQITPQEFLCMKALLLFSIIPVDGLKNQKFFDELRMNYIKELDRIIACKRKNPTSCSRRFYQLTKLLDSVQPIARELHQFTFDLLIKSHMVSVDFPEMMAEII
Description: (§1) The direct reversible interaction between small molecules and the AR was quantified by BLI using OctetRED (ForteBio, Fremont, CA, USA). The wild type and T878A-LDB in fusion with an N-terminal (His)6-avidin ([…]) tag were expressed in E. coli BL21-DE3 cells co-transformed with pBirACm plasmid (Avidity), which expresses a biotin ligase leading to the biotynilation of the avidin tag on the LBD. Cells were grown in LB media at 37 °C to an OD600nm = 0.5 and then induced with 0.5 mM isopropyl-β-D-thiogalactoside. A measure of 20 µM of dihydrotestosterone (DHT) and 0.15 mM biotin were added and the cells were incubated at 16 °C for 18 to 20 h. Cells were then resuspended and lysed in buffer containing 500 mM Li2SO4, 50mM HEPES pH7.2, 10% Glycerol, 0.1% Octyl-beta-Glucoside, 20 µM of DHT, 5 mM β-mercaptoethanol, 10 mM imidazole and 0.1 mM phenylmethanesulfonyl fluoride. […] After an overnight dialysis against 150 mM Li2SO4, 50 mM HEPES pH7.2, 10% Glycerol, 0.1% Octyl-beta-Glucoside, 20 µM of DHT and 0.2 mM tris(2-carboxyethyl)phosphine, purified proteins at 50 µg/mL were bound to the super-streptavidin sensors overnight at 4 °C. The assay was performed at 20 °C in the dialysis buffer supplemented with 5% dimethyl sulfoxide (DMSO) which was also used as our reference measurement.

T878A AR LBD = target: T4, T878A AR LBD (Homo sapiens, UniProt P10275, T878A); test: Biolayer interferometry (BLI), T878A LBD; format: binding
T4 construct: made in house; host or cells: E. coli BL21-DE3 co-transformed with pBirACm
T4 sequence (P10275 669-900 T878A limits assumed): T3 sequence (P10275 669-900 limits assumed) with T210A
Description: as §1

T878A-AR mutant = target: T5, T878A-AR mutant (Homo sapiens, UniProt P10275, T878A); test: Luciferase reporter assay, PC3 cells transfected with T878A-AR; format: cell-based; conditions: T878A-AR, high concentrations, absence of R1881
T5 construct: Full-length human wild type AR was cloned into pcDNA3.1 expression plasmid; expressed in transfected cells; host or cells: PC3
T5 sequence (P10275 1-920 T878A): T1 sequence (P10275 1-920 T878A)
Description: Full-length human wild type AR was cloned into pcDNA3.1 expression plasmid (Invitrogen, Waltham, MA, USA) with a CMV promoter. The T878A mutant (T878A-AR) was generated with the Quikchange Mutagenesis Kit (Stratagene, San Diego, CA, USA) using hARWT plasmid as a template. Androgen-starved PC3 cells were seeded in 96-well plates (3000 cells/well) in RPMI 1640 + 5% CSS for 24 h followed by transfection with 50 ng of hARWT or hART878A along with 50 ng of ARR3tk-luciferase reporter construct (100 ng total plasmid DNA) and 0.3 µL/well TransIT20/20 transfection reagent (TT2020, Mirus, Madison, Wisconsin, WI, USA) for 48 h. […] Cell lysis was carried out with 60 µL 1X passive lysis buffer/well (Promega, Madison, Wisconsin, WI, USA). The luminescence from 20 µL of cell lysate and 50 µL of Luciferase assay reagent (Promega, Madison, Wisconsin, WI, USA) was recorded on a TECAN M200pro plate reader.

[3] = LNCaP eGFP reporter (ARR2PB promoter), 0.1 nM R1881, 3 days

| SMILES | Reporter eGFP IC50 [2, 3] | Anti-AR activity in eGFP assay [2] | Partial agonistic effect in eGFP assay ([2]; LNCaP) | Androgen displacement (Androgen Receptor ABS) [%] | Androgen Displacement (Yes/No) (Androgen Receptor ABS) | other results |
| --- | --- | --- | --- | --- | --- | --- |
| C[C@](O)(CS(=O)(=O)c1ccc(F)cc1)C(=O)Nc1ccc(C#N)c(C(F)(F)F)c1 [R-bicalutamide] |  |  |  |  |  | Agonist behaviour on mutated AR [1]: acts as an agonist only when the T878A mutation is also coupled with W742C |
| c1cc2c(cc1-c1csc(N3CCOCC3)n1)CCCC2 [VPC14291] | inactive | lost their anti-AR activity |  |  |  |  |
| c1sc(N2CCOCC2)nc1C1CCCC1 [VPC14403] | inactive | lost their anti-AR activity |  |  |  |  |
| c1cc(-c2csc(N3CCOCC3)n2)cs1 [VPC14404] |  | maintained good potency | no undesired partial agonistic effects were observed | <10 |  |  |
| c1sc(N2CCOCC2)nc1C1CCCCC1 [VPC14406] | inactive | lost their anti-AR activity |  |  |  |  |
| c1cc(-c2csc(N3CCOCC3)n2)ccn1 [VPC14435] |  | maintained good potency | no undesired partial agonistic effects were observed |  | No |  |
| c1ccc(-c2csc(N3CCOCC3)n2)nc1 [VPC14436] |  |  |  |  | No |  |
| c1cncc(-c2csc(N3CCOCC3)n2)c1 [VPC14439] |  |  |  | 30 | Yes | Concentration above which partial agonism is seen in the eGFP assay ([2]; LNCaP, 0.1 nM R1881): above 3 µM |
| Brc1ncn(-c2csc(N3CCOCC3)n2)c1Br [VPC14449] |  | maintained good potency | no undesired partial agonistic effects were observed | < 10 |  | IC50 [2, 3]: 150 ± 40 nM; Direct binding to wild-type LBD by BLI (wild type AR LBD): not binding; Direct binding to T878A LBD by BLI (T878A AR LBD): not binding; Reduction of AR stimulation in comparison with VPC14368 (T878A-AR mutant): ~ 80%; Androgen displacement (Androgen Receptor ABS; listed as 14449): <10% |
